Assay results published in patent publication US20090215028A1, “Methods and Compositions for Determining Anti-HIV Drug Susceptibility and Replication Capacity of HIV” (priority 2005, published 2009).

Key:
Assay type in all cases: cell-based
[1] = tested on: HIV mutants comprising site-directed mutations in integrase; test: Anti-HIV drug susceptibility assay (luciferase test vectors, 293 cells), site-directed integrase mutants; conditions: FIG. 2
Description: A retroviral vector designed to measure antiretroviral drug susceptibility was constructed by using an infectious molecular clone of HIV-1. The vector, referred to herein as an indicator gene viral vector (IGVV), is replication defective and contains a luciferase expression cassette inserted within a deleted region of the envelope (env) gene. The IGVV is described in U.S. Pat. No. 5,837,464 (International Publication Number WO 97/27319) which is hereby incorporated by reference in its entirety. This retroviral vector was further modified to allow insertion of either the entire pol gene (POL) or the portion of pol encoding amino acids 319-440 of reverse transcriptase, the RNase H portion of reverse transcriptase, and integrase (RHIN) by engineering an Xho1 restriction enzyme recognition site into vif. Prior to doing this, an Xho 1 site in nef was deleted. Test vectors (TVs) were constructed by incorporating amplified POL or RHIN into the IGVV by using ApaI and Xho1 or PinAI and Xho1 restriction sites respectively. TVs were prepared as libraries (pools) in order to capture and preserve the pol or RHN sequence heterogeneity of the virus in the patient. […]
Susceptibility tests were carried out with the TV libraries by using viral particles comprising the RTV libraries to infect a host cell in which the expression of the indicator gene is measured. The amount of indicator gene (luciferase) activity detected in infected cells is used as a direct measure of “infectivity,” i.e., the ability of the virus to complete a single round of replication. Thus, drug resistance or sensitivity can be determined by plotting the amount of luciferase activity produced by patient derived viruses in the presence of varying concentrations of the antiviral drug. By identifying the concentration of drug at which luciferase activity is half-maximum, the IC50 of the virus from which patient-derived segment(s) were obtained for the antiretroviral agent can be determined. […]

[2] = tested on: HIV isolated from treatment-naïve patients (POL segment); test: Anti-HIV drug susceptibility assay (luciferase test vectors, 293 cells), patient-derived POL segment; conditions: 30 clinical isolates from treatment-naïve patients, FIG. 5
Description: (§1) Patient-derived segment(s) corresponding to either the entire pol gene, encoding HIV protease, reverse transcriptase, integrase, and RNAse H (hereinafter “POL”), or the portion of pol encoding amino acids 319-440 of reverse transcriptase, integrase, and RNAse H (hereinafter “RHIN”), were amplified by the reverse transcription-polymerase chain reaction method (RT-PCR) using viral RNA isolated from viral particles present in the plasma or serum of HIV-infected individuals as follows. Virus was pelleted by centrifugation at 20,400×g for 60 min from plasma (typically, 1 ml) prepared from blood samples collected in evacuated tubes containing either EDTA, acid-citrate dextrose, or heparin as an anticoagulant. Virus particles were disrupted by resuspending the pellets in 200 μl of lysis buffer (4 M guanidine thiocyanate, 0.1 M Tris HCl [pH 8.0], 0.5% sodium lauryl sarcosine, 1% dithiothreitol). RNA was extracted from viral lysates by using oligo(dT) linked to magnetic beads (Dynal, Oslo, Norway). Reverse transcription was performed with Superscript III (Invitrogen) at 50 degrees for 1 hour using primer 1.
From the resultant cDNA either POL or RHIN sequences were amplified using the Advantage High Fidelity PCR kit (BD Biosciences; Clontech). POL amplification products are made using forward Primer 3 containing an ApaI site and reverse Primer 4 containing a Xho 1 site. […]

[3] = tested on: HIV isolated from treatment-naïve patients (RHIN segment); test: Anti-HIV drug susceptibility assay (luciferase test vectors, 293 cells), patient-derived RHIN segment
Description: as §1
From the resultant cDNA either POL or RHIN sequences were amplified using the Advantage High Fidelity PCR kit (BD Biosciences; Clontech). POL amplification products are made using forward Primer 3 containing an ApaI site and reverse Primer 4 containing a Xho 1 site. RHIN amplification products are made using forward Primer 2 containing a PINA1 site and reverse Primer 4 containing a Xho 1 site.
A retroviral vector designed to measure antiretroviral drug susceptibility was constructed by using an infectious molecular clone of HIV-1. The vector, referred to herein as an indicator gene viral vector (IGVV), is replication defective and contains a luciferase expression cassette inserted within a deleted region of the envelope (env) gene. The IGVV is described in U.S. Pat. No. 5,837,464 (International Publication Number WO 97/27319) which is hereby incorporated by reference in its entirety. […]

[4] = 30 clinical isolates from treatment-naïve patients, RHIN segment, FIG. 5

`O=C(NCc1ccc(F)cc1)c1nc(N2CCCCS2(=O)=O)c2cccnc2c1O` [L-870,810] was tested, and the “susceptibility (IC50 relative to HIV strain IIIB)” value ([1]; site-directed integrase mutant N155S) was “reduced susceptibility”, the “susceptibility (IC50 relative to HIV strain IIIB)” value ([1]; site-directed integrase mutant V72I/F121Y/T125K) was “reduced susceptibility” and the “susceptibility (IC50 relative to HIV strain IIIB)” value ([1]; site-directed integrase mutant) was “reduced susceptibility”. For the same molecule, the “mean fold change (FC) in IC50” value [2] was 0.85, the “median fold change (FC) in IC50” value [2] was 0.85 and the “mean fold change (FC) in IC50” value [3, 4] was 0.86. The “median fold change (FC) in IC50” value [3, 4] was 0.82 and the “mean fold change (FC) in IC50 relative to HIV strain IIIb” value ([3]; RHIN sequences from 45 treatment-naïve patient viruses, FIG. 4) was 0.83.
